Like-named read-outs stand apart in the source and are kept apart here.
Molecular target: T1, F508delCFTR (Homo sapiens, UniProt P13569, DEL508-508)
T1 construct: expressed in transfected cells; host or cells: CFBE41o- human lung derived epithelial cells (CFBE41o-F508delCFTR-HRP), doxycycline-inducible
Assay: Cell Surface Expression-Horse Radish Peroxidase (CSE-HRP) Assay;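 on EC50 (with co-corrector): co-corrector chromenyl benzoic acid corrector at 2 or 3 µM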;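 on Maximum % activity (without co-corrector): % of on-plate positive control chromenyl benzoic acid corrector at 2 or 3 µM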
Assay type: cell-based
Conditions: for Maximum % activity (with co-corrector) / Emax: maximum at any tested concentration; for Emax: read-out: Maximum % activity (without co-corrector)
In short: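 Corrector compounds were given as 8-point 3-fold series from 20 or 30 μM, with or without a 2 μM co-corrector, for 18-24 h at 33 °C. Surface HRP was read by luminol luminescence as % of positive control; variable-Hill-slope sigmoidal fitting gave EC50 from triplicate plates.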

[1] = test compound alone, without co-corrector, read-out: EC50 (without co-corrector)
[2] = with co-corrector, read-out: EC50 (with co-corrector)

T1 sequence (P13569 with tags, fused parts or gaps DEL508-508): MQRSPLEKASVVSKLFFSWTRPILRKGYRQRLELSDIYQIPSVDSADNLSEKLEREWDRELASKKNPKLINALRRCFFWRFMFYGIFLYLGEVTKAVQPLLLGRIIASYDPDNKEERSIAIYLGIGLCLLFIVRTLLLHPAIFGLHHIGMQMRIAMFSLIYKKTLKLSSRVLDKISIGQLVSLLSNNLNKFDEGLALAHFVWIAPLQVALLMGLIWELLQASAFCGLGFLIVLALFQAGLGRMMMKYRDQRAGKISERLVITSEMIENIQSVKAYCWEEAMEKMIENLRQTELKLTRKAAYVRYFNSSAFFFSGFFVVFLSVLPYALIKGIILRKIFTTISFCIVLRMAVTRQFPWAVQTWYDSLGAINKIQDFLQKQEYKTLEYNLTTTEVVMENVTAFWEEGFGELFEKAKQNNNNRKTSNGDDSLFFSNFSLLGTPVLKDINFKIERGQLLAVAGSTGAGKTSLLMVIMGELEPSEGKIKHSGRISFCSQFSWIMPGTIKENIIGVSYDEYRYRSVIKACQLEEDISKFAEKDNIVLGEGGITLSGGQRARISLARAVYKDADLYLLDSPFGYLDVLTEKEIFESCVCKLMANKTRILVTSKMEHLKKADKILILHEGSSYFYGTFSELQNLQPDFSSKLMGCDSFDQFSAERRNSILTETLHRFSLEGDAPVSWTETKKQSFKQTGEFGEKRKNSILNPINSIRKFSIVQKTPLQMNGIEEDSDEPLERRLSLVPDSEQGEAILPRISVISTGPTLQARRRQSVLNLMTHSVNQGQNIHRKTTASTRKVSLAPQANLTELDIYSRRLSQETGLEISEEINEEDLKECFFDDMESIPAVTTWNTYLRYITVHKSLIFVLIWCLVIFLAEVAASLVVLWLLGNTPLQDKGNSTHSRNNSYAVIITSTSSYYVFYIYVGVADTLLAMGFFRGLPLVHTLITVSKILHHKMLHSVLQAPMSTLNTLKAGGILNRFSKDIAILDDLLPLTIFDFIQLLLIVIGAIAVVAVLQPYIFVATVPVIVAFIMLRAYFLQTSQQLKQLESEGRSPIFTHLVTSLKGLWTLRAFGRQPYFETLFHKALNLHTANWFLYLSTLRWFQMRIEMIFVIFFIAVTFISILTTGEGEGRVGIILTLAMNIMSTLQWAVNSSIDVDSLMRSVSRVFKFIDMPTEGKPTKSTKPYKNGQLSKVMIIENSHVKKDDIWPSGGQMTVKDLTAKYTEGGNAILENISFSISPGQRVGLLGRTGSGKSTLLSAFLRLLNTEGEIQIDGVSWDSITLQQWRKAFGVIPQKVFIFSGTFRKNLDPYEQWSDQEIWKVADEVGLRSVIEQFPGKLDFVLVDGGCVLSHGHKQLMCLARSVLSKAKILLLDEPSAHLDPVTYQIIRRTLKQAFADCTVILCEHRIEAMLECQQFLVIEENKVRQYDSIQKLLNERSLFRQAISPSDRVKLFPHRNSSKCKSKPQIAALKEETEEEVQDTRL

Compound | EC50 [1] | Maximum % activity (with co-corrector) (with co-corrector) | EC50 [2] | Emax (without co-corrector)
COC[C@@H](C)Oc1ccc(C)cc1C1(C(=O)NS(=O)(=O)c2cccc3nc(C)ccc23)CC1 [Example I-107, 1-(2-{[(2R)-1-methoxypropan-2-yl]oxy}-5-methylphenyl)-N-(2-methylquinoline-5-sulfonyl)cyclopropane-1-carboxamide] | < 3 µM | +++ (≥350) | < 3 µM | > 150%
CC(C)COc1ccc(N(C)C)c(C2(C(=O)NS(=O)(=O)c3cccc4ncccc34)CC2)n1 [Example I-108, 1-[3-(dimethylamino)-6-(2-methylpropoxy)pyridin-2-yl]-N-(quinoline-5-sulfonyl)cyclopropane-1-carboxamide] | < 3 µM | +++ (≥350) | < 3 µM | > 150%
Cc1ccc2c(S(=O)(=O)NC(=O)C3(c4cc(N(C)C)cnc4OCC(C)C)CC3)cccc2n1 [Example I-109, 1-[5-(dimethylamino)-2-(2-methylpropoxy)pyridin-3-yl]-N-(2-methylquinoline-5-sulfonyl)cyclopropane-1-carboxamide] | < 3 µM | +++ (≥350) | < 3 µM | > 150%
CCc1ccc(O[C@H](C)COC)c(C2(C(=O)NS(=O)(=O)c3cccc4nc(C)ccc34)CC2)c1 [Example I-112, 1-(5-ethyl-2-{[(2R)-1-methoxypropan-2-yl]oxy}phenyl)-N-(2-methylquinoline-5-sulfonyl)cyclopropane-1-carboxamide] | < 3 µM | +++ (≥350) | < 3 µM | > 150%
CO[C@@H](C)COc1ccc(C)cc1C1(C(=O)NS(=O)(=O)c2cccc3nc(C)ccc23)CC1 [Example I-114, 1-{2-[(2S)-2-methoxypropoxy]-5-methylphenyl}-N-(2-methylquinoline-5-sulfonyl)cyclopropane-1-carboxamide] | < 3 µM | +++ (≥350) | < 3 µM | > 150%
CO[C@H](C)COc1ccc(C)cc1C1(C(=O)NS(=O)(=O)c2cccc3nc(C)ccc23)CC1 [Example I-116, 1-{2-[(2R)-2-methoxypropoxy]-5-methylphenyl}-N-(2-methylquinoline-5-sulfonyl)cyclopropane-1-carboxamide] | < 3 µM | +++ (≥350) | < 3 µM | > 150%
CCc1ccc(O[C@@H]2CCOC2)c(C2(C(=O)NS(=O)(=O)c3cccc4nc(C)ccc34)CC2)c1 [Example I-119, 1-(5-ethyl-2-{[(3R)-oxolan-3-yl]oxy}phenyl)-N-(2-methylquinoline-5-sulfonyl)cyclopropane-1-carboxamide] | < 3 µM | +++ (≥350) | < 3 µM | > 150%
Cc1ccc(O[C@@H]2CCOC2)c(C2(C(=O)NS(=O)(=O)c3cccc4nc(C)ccc34)CC2)c1 [Example I-123, 1-(5-methyl-2-{[(3R)-oxolan-3-yl]oxy}phenyl)-N-(2-methylquinoline-5-sulfonyl)cyclopropane-1-carboxamide] | < 3 µM | +++ (≥350) | < 3 µM | > 150%
Cc1ccc(O[C@H]2CCOC2)c(C2(C(=O)NS(=O)(=O)c3cccc4nc(C)ccc34)CC2)c1 [Example I-124, 1-(5-methyl-2-{[(3S)-oxolan-3-yl]oxy}phenyl)-N-(2-methylquinoline-5-sulfonyl)cyclopropane-1-carboxamide] | < 3 µM | +++ (≥350) | < 3 µM | > 150%
O=C(NS(=O)(=O)c1ccccc1)C1(c2ccc(Cl)cc2Cl)CC1 [Example III-3, N-(benzenesulfonyl)-1-(2,4-dichlorophenyl)cyclopropane-1-carboxamide] | 3 to 10 µM | +++ (≥350) | 3 to 10 µM | 50 to 150%
COc1ccc(C2(C(=O)NS(=O)(=O)c3ccccc3)CC2)cc1 [Example III-5, N-(benzenesulfonyl)-1-(4-methoxyphenyl)cyclopropane-1-carboxamide] | > 10 µM | + (<150) | > 10 µM | < 50%
O=C(NS(=O)(=O)c1ccccc1)C1(c2ccccc2)CC1 [Example III-6, N-(benzenesulfonyl)-1-phenylcyclopropane-1-carboxamide] | > 10 µM | ++ (≥150 and <350) | 3 to 10 µM | < 50%

Other lines, results leading:

EC50 [1] | Maximum % activity (with co-corrector) (with co-corrector) | EC50 [2] | Emax (without co-corrector) | Compound
< 3 µM | +++ (≥350) | < 3 µM | > 150% | COCC(C)(C)c1ccc(OC)c(C2(C(=O)NS(=O)(=O)c3cccc4ncccc34)CC2)c1 [Example I-110, 1-[2-methoxy-5-(1-methoxy-2-methylpropan-2-yl)phenyl]-N-(quinoline-5-sulfonyl)cyclopropane-1-carboxamide]
< 3 µM | +++ (≥350) | < 3 µM | > 150% | CCc1ccc(O[C@H](C)COC)c(C2(C(=O)NS(=O)(=O)c3cccc4ncccc34)CC2)c1 [Example I-111, 1-(5-ethyl-2-{[(2R)-1-methoxypropan-2-yl]oxy}phenyl)-N-(quinoline-5-sulfonyl)cyclopropane-1-carboxamide]
< 3 µM | +++ (≥350) | < 3 µM | > 150% | CO[C@@H](C)COc1ccc(C)cc1C1(C(=O)NS(=O)(=O)c2cccc3ncccc23)CC1 [Example I-113, 1-{2-[(2S)-2-methoxypropoxy]-5-methylphenyl}-N-(quinoline-5-sulfonyl)cyclopropane-1-carboxamide]
< 3 µM | +++ (≥350) | < 3 µM | > 150% | CO[C@H](C)COc1ccc(C)cc1C1(C(=O)NS(=O)(=O)c2cccc3ncccc23)CC1 [Example I-115, 1-{2-[(2R)-2-methoxypropoxy]-5-methylphenyl}-N-(quinoline-5-sulfonyl)cyclopropane-1-carboxamide]
< 3 µM | +++ (≥350) | < 3 µM | > 150% | CCc1ccc(O[C@H]2CCOC2)c(C2(C(=O)NS(=O)(=O)c3cccc4ncccc34)CC2)c1 [Example I-117, 1-(5-ethyl-2-{[(3S)-oxolan-3-yl]oxy}phenyl)-N-(quinoline-5-sulfonyl)cyclopropane-1-carboxamide]
< 3 µM | +++ (≥350) | < 3 µM | > 150% | CCc1ccc(O[C@@H]2CCOC2)c(C2(C(=O)NS(=O)(=O)c3cccc4ncccc34)CC2)c1 [Example I-118, 1-(5-ethyl-2-{[(3R)-oxolan-3-yl]oxy}phenyl)-N-(quinoline-5-sulfonyl)cyclopropane-1-carboxamide]
< 3 µM | +++ (≥350) | < 3 µM | > 150% | Cc1ccc(O[C@@H]2CCOC2)c(C2(C(=O)NS(=O)(=O)c3cccc4ncccc34)CC2)c1 [Example I-122, 1-(5-methyl-2-{[(3R)-oxolan-3-yl]oxy}phenyl)-N-(quinoline-5-sulfonyl)cyclopropane-1-carboxamide]

— US10829473B2, “Modulators of the cystic fibrosis transmembrane conductance regulator protein and methods of use” (AbbVie Overseas S.Á.R.L., priority 2017, dated 2020)
